# Measurements: patent publication US8802597B2, “Herbicidal pyrimidines” (E I du Pont de Nemours and Company, priority 2003, dated 2014)
# Read-outs that look alike come from different tables or passages of the source.
# Experiments:
# Type in all cases: in vivo
# [1] = system: umbrella sedge (Cyperus difformis); assay: Test C flooded paddy test; conditions: Flood, scale 0 to 100
# Protocol: (§1) At the same time, plants selected from these crop and weed species and also winter barley (Hordeum vulgare), blackgrass (Alopecurus myosuroides), canarygrass (Phalaris minor), chickweed (Stellaria media), downy brome (Bromus tectorum), green foxtail (Setaria viridis), Italian ryegrass (Lolium multiflorum), wheat (Triticum aestivum), wild oat (Avena fatua) and windgrass (Apera spica-venti) were treated with postemergence applications of some of the test chemicals formulated in the same manner. Plants ranged in height from 2 to 18 cm (1- to 4-leaf stage) for postemergence treatments. Plant species in the flooded paddy test consisted of rice (Oryza sativa), umbrella sedge (Cyperus difformis), duck salad (Heteranthera limosa) and barnyardgrass (Echinochloa crus-galli) grown to the 2-leaf stage for testing. Treated plants and controls were maintained in a greenhouse for 12 to 14 days, after which time all species were compared to controls and visually evaluated. Plant response ratings, summarized in Table C, are based on a scale of 0 to 100 where 0 is no effect and 100 is complete control. A dash (-) response means no test result.
# [2] = system: duck salad (Heteranthera limosa); assay: Test C flooded paddy test; conditions: Flood, scale 0 to 100
# Protocol: as §1
# [3] = system: rice (Oryza sativa); assay: Test C flooded paddy test; conditions: Flood, scale 0 to 100
# Protocol: as §1
# [4] = system: barnyardgrass (Echinochloa crus-galli); assay: Test C flooded paddy test; conditions: Flood
# Protocol: as §1
# [5] = system: bermudagrass (Cynodon dactylon); assay: Test C pre/postemergence; conditions: Cynodon dactylon; for pest or weed control at 62 g/ha: 62 g ai/ha; for pest or weed control at 125 g/ha: 125 g ai/ha; for pest or weed control at 125 g/ha / pest or weed control at 250 g/ha / pest or weed control at 500 g/ha: scale 0 to 100; for pest or weed control at 250 g/ha: 250 g ai/ha; for pest or weed control at 500 g/ha: 500 g ai/ha
# Method in brief: (§2)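 Percent control is a visual rating (0 none, 100 complete) taken against untreated plants after 12 to 14 days of greenhouse growth. Applications were made preemergence to seeded pots and postemergence to plants at the 1- to 4-leaf stage, in a non-phytotoxic surfactant-containing solvent.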
# [6] = system: common ragweed (Ambrosia elatior); assay: Test C pre/postemergence; conditions: Ambrosia artemisiifolia; for pest or weed control at 62 g/ha: 62 g ai/ha; for pest or weed control at 125 g/ha: 125 g ai/ha; for pest or weed control at 250 g/ha: 250 g ai/ha; for pest or weed control at 500 g/ha: 500 g ai/ha
# Method in brief: as §2
# [7] = system: eastern black nightshade (Solanum ptycanthum); assay: Test C pre/postemergence; conditions: Solanum, pre-emergence, Preemergence, read-out: Plant response rating, Nightshade
# Method in brief: as §2
# [8] = post-emergence, Postemergence, read-out: Plant response rating, Bermudagrass
# [9] = pre-emergence, Preemergence, read-out: Plant response rating, Bermudagrass
# [10] = post-emergence, Postemergence, scale 0 to 100 (0 no effect, 100 complete control), read-out: Ragweed plant response rating
# [11] = post-emergence, Postemergence, scale 0 to 100, read-out: Plant response rating, Ragweed
# [12] = pre-emergence, Preemergence, scale 0 to 100, read-out: Plant response rating, Ragweed
smiles,measurement,setting,value
"CCOC(=O)c1nc(C2CC2)nc(N)c1Br [Compound 1, ethyl 6-amino-5-bromo-2-cyclopropyl-4-pyrimidinecarboxylate]","Plant response rating, Sedge, Umbrella",[1]; 62 g ai/ha,0
same,"Plant response rating, Sedge, Umbrella",[1]; 250 g ai/ha,0
same,"Plant response rating, Sedge, Umbrella",[1]; 500 g ai/ha,0
same,"Plant response rating, Ducksalad",[2]; 62 g ai/ha,0
same,"Plant response rating, Ducksalad",[2]; 250 g ai/ha,0
same,"Plant response rating, Ducksalad",[2]; 500 g ai/ha,0
same,"Plant response rating, Rice",[3]; 62 g ai/ha,0
same,"Plant response rating, Rice",[3]; 125 g ai/ha,0
same,"Plant response rating, Rice",[3]; 250 g ai/ha,0
same,"Plant response rating, Rice",[3]; 500 g ai/ha,0
same,"Plant response rating, Barnyardgrass","[4]; 62 g ai/ha, scale 0 to 100",0
same,"Plant response rating, Barnyardgrass","[4]; 125 g ai/ha, scale 0 to 100",0
same,"Plant response rating, Barnyardgrass","[4]; 250 g ai/ha, scale 0 to 100",15
same,"Plant response rating, Barnyardgrass","[4]; 500 g ai/ha, scale 0 to 100 (0 no effect, 100 complete control)",25
same,pest or weed control at 62 g/ha,"[5]; post-emergence, Postemergence, scale 0 to 100 (0 no effect, 100 complete control), read-out: Bermudagrass plant response rating",70%
same,pest or weed control at 125 g/ha,[5]; [8],90%
same,pest or weed control at 250 g/ha,[5]; [8],90%
same,pest or weed control at 500 g/ha,[5]; [8],90%
same,pest or weed control at 62 g/ha,"[5]; pre-emergence, Preemergence, scale 0 to 100, 0 no effect, 100 complete control, read-out: Plant response rating, Bermudagrass",0%
same,pest or weed control at 125 g/ha,[5]; [9],50%
same,pest or weed control at 250 g/ha,[5]; [9],70%
same,pest or weed control at 500 g/ha,[5]; [9],90%
same,pest or weed control at 62 g/ha,[6]; [10],100%
same,pest or weed control at 125 g/ha,[6]; [10],100%
same,pest or weed control at 250 g/ha,[6]; [11],100%
same,pest or weed control at 500 g/ha,[6]; [11],100%
same,pest or weed control at 62 g/ha,"[6]; pre-emergence, Preemergence, scale 0 to 100, 0 no effect, 100 complete control, read-out: Plant response rating, Ragweed",95%
same,pest or weed control at 125 g/ha,[6]; [12],100%
same,pest or weed control at 250 g/ha,[6]; [12],100%
same,pest or weed control at 500 g/ha,[6]; [12],100%
same,pest or weed control at 62 g/ha,"[7]; 62 g ai/ha, scale 0 to 100, 0 no effect, 100 complete control",100%
same,pest or weed control at 125 g/ha,"[7]; 125 g ai/ha, scale 0 to 100",100%
same,pest or weed control at 250 g/ha,"[7]; 250 g ai/ha, scale 0 to 100",100%
same,pest or weed control at 500 g/ha,"[7]; 500 g ai/ha, scale 0 to 100",100%
